Test results: the OligoGym collection
Several values for one entry are separate records, joined by “and”; a condition that tells them apart may be missing. Equal values may be shown once. After the bases stand the sugars from the 5' end (letter, count) and the backbone: PS all phosphorothioate, else s phosphorothioate and o phosphodiester by linkage. Methylation of C is not given here. e = 2'-O-(2-methoxyethyl) (MOE); k = constrained ethyl (cEt); d = 2'-deoxy (DNA)

What follows are sequences tested against IRF4. Conditions: ASO, MM.1R, 1 µM.

First: CTCTATAGTGTTCCAG (sugars kkdddddddddekeke, PS)
Second: GGACTCCGGGAGCCTG (sugars k3 d10 k3, PS)
The target mRNA inhibition of the first is higher: 43% for the first, -8% for the second.

Going from “CCTCAGTTTGTGAAGC (sugars kkkdddddddddkeke, PS)” to “AAGCTTGATAAAGGCT (sugars kdddddddddkekeke, PS)”, the target mRNA inhibition falls from 8% to 2%.

First: AGTGATGTCAGGTTTT (sugars kkdddddddddkekek, PS)
Second: TAGTATGAGAAACGGC (sugars kddddddddddkekek, PS)
The target mRNA inhibition of the first is higher: 39% for the first, 24% for the second.

ATGTTGCATAGGCATC (sugars k3 d10 k3, PS) gave a target mRNA inhibition of 10%.

With TTACTGTTACCGATGC (sugars k3 d10 k3, PS) the target mRNA inhibition was 26% and 35%.

Same assay, conditions: ASO, SK-MEL-28, 4 µM

First: TCAAAGTCATTGCTCT (sugars k3 d10 k3, PS)
Second: TCACGAAACACAGTCT (sugars k3 d10 k3, PS)
The target mRNA inhibition of the first is lower: 21% for the first, 68% for the second.

Going from TCAAAAGTCTTAAGGG (sugars k3 d10 k3, PS) to AATGAACCCTAAGTTT (sugars k3 d10 k3, PS), the target mRNA inhibition falls from 7% to 3%.

First: ACGCACGGAGAGGGCG (sugars k3 d10 k3, PS)
Second: TTAGAATGCATAACAC (sugars k3 d10 k3, PS)
The target mRNA inhibition of the first is lower: 1% for the first, 44% for the second.

Going from CTCTAGTCAGTGTCAA (sugars k3 d10 k3, PS) to TACAAGCAGTCATCAC (sugars k3 d10 k3, PS), the target mRNA inhibition falls from 59% to 29%.

Each sequence was assayed against MALAT1. Conditions: ASO, A431, 0.005 µM.

Going from CCACTGGTGAATTCAA (sugars k3 d10 k3, PS) to GCACAGCTCGGGCGAG (sugars k3 d10 k3, PS), the target mRNA inhibition falls from 55% to -20%.

Going from GGAATTCGATCACCTT (sugars k3 d10 k3, PS) to TTAGAGGGCCTCTATT (sugars k3 d10 k3, PS), the target mRNA inhibition falls from 29% to 3%.

Compared with TCAAACTAAGCTACTA (sugars k3 d10 k3, PS), ATCCAAGCTACTGGCT (sugars k3 d10 k3, PS) is higher in target mRNA inhibition: -1% for the first, 40% for the second.

First: CACCACGAACTGCTGC (sugars k3 d10 k3, PS)
Second: AGCTGCAAACTTTAGA (sugars k3 d10 k3, PS)
The target mRNA inhibition of the first is lower: 19% for the first, 26% for the second.

Compared with ACCCAAAAGCCCTCTC (sugars k3 d10 k3, PS), CTCCCCCAACTGCTTG (sugars k3 d10 k3, PS) is higher in target mRNA inhibition: 13% for the first, 22% for the second.

Going from TGACGCAATTCTCCCT (sugars k3 d10 k3, PS) to AGACTGTTGCTTGTTT (sugars k3 d10 k3, PS), the target mRNA inhibition falls from 33% to 1%.

Going from TTCGCAGACAAAGTTT (sugars k3 d10 k3, PS) to AAACTTGCCATCTACT (sugars k3 d10 k3, PS), the target mRNA inhibition falls from 22% to -4%.

Compared with AAGCCCTCTCAGCCAC (sugars k3 d10 k3, PS), GCAGTTATATTAGGTT (sugars k3 d10 k3, PS) is lower in target mRNA inhibition: 38% for the first, 15% for the second.

First: ACTTTCCATTACGCAA (sugars k3 d10 k3, PS)
Second: ACAGCGGTACACTCCT (sugars k3 d10 k3, PS)
The target mRNA inhibition of the first is lower: 9% for the first, 42% for the second.

First: CTGATAAACTCACTGC (sugars k3 d10 k3, PS)
Second: TTCCTAGCTTCACCAC (sugars k3 d10 k3, PS)
The target mRNA inhibition of the first is higher: 48% for the first, 36% for the second.

Going from AGAGGGCCTCTATTGC (sugars k3 d10 k3, PS) to CCCCCGGAACTTTTAA (sugars k3 d10 k3, PS), the target mRNA inhibition falls from 33% to -12%.

Compared with TTTGAGTATGCTGATA (sugars k3 d10 k3, PS), CCTTTTCTAACATAGT (sugars k3 d10 k3, PS) is lower in target mRNA inhibition: 47% for the first, 23% for the second.

Compared with CTCACAAAACCCCCGG (sugars k3 d10 k3, PS), TTTATAGACGGAGAAC (sugars k3 d10 k3, PS) is lower in target mRNA inhibition: 18% for the first, -6% for the second.

First: CGCACTGGCTCCTGGA (sugars k3 d10 k3, PS)
Second: CTATATAAGGTCAATA (sugars k3 d10 k3, PS)
The target mRNA inhibition of the first is higher: 49% for the first, 16% for the second.

First: CTAAATCATTGGGAGT (sugars k3 d10 k3, PS)
Second: CTGGTTAGGTATGAGC (sugars k3 d10 k3, PS)
The target mRNA inhibition of the first is higher: 48% for the first, 3% for the second.

Compared with CACAACAATTTAGAGC (sugars k3 d10 k3, PS), GTCAATTAATGCTAGT (sugars k3 d10 k3, PS) is higher in target mRNA inhibition: -17% for the first, 41% for the second.

Going from TTATATTAGGTTCTCG (sugars k3 d10 k3, PS) to GTCTGAAGAATACCAT (sugars k3 d10 k3, PS), the target mRNA inhibition rises from -6% to 47%.

First: TGCACTCGCTCCTTCC (sugars k3 d10 k3, PS)
Second: TTAAAAAGGCTCGATG (sugars k3 d10 k3, PS)
The target mRNA inhibition of the first is higher: 33% for the first, 21% for the second.

Going from GATCCAAGCTACTGGC (sugars k3 d10 k3, PS) to GCCTCCTCCGTGTGGT (sugars k3 d10 k3, PS), the target mRNA inhibition falls from 18% to -1%.

First: AAGTAAGCCCCACCCC (sugars k3 d10 k3, PS)
Second: TCATCCTACCACTCCC (sugars k3 d10 k3, PS)
The target mRNA inhibition of the first is higher: 37% for the first, 34% for the second.

Going from CTCAATCCACTTGATC (sugars k3 d10 k3, PS) to GACAGACCTAAGGGAA (sugars k3 d10 k3, PS), the target mRNA inhibition rises from 32% to 34%.

Compared with TTAATCACCTTCGGTT (sugars k3 d10 k3, PS), GTTCGAGAAATCGGAG (sugars k3 d10 k3, PS) is lower in target mRNA inhibition: 27% for the first, 15% for the second.

Going from ATCCCATCACTGAAGC (sugars k3 d10 k3, PS) to CAATTAATGCTAGTCC (sugars k3 d10 k3, PS), the target mRNA inhibition falls from 36% to 28%.

Going from TGCCGACCTCACGGAT (sugars k3 d10 k3, PS) to CCTTTTAAAGTAGACC (sugars k3 d10 k3, PS), the target mRNA inhibition falls from 24% to -22%.

First: ATGGTAGATTCCGTAA (sugars k3 d10 k3, PS)
Second: GCAATATCTTAGTAAC (sugars k3 d10 k3, PS)
The target mRNA inhibition of the first is lower: 14% for the first, 23% for the second.

Compared with AGTATCAAATTATGAC (sugars k3 d10 k3, PS), ATACCTTAACATCTTG (sugars k3 d10 k3, PS) is higher in target mRNA inhibition: 14% for the first, 43% for the second.

Compared with TTCTACCGTTTTTCAG (sugars k3 d10 k3, PS), CCCAAGATTGCCCCAA (sugars k3 d10 k3, PS) is lower in target mRNA inhibition: 10% for the first, -7% for the second.

Compared with ATGGAACTTGAATGCA (sugars k3 d10 k3, PS), TATCTTAGTAACCTAT (sugars k3 d10 k3, PS) is higher in target mRNA inhibition: 1% for the first, 21% for the second.

Going from ATTTTAAGGTTGCATC (sugars k3 d10 k3, PS) to AAAACGAATTCAGGGT (sugars k3 d10 k3, PS), the target mRNA inhibition falls from 37% to 25%.

Compared with TTTAGGATTCTAGACA (sugars k3 d10 k3, PS), GCCCGCACGGAAATTT (sugars k3 d10 k3, PS) is lower in target mRNA inhibition: 25% for the first, 23% for the second.

Compared with CTATAGCATCTGTGGA (sugars k3 d10 k3, PS), CAAACTTGCCATCTAC (sugars k3 d10 k3, PS) is lower in target mRNA inhibition: 29% for the first, 11% for the second.

Compared with AAGATAGCAGCACAAC (sugars k3 d10 k3, PS), GTTGAGAAGTGGCAAA (sugars k3 d10 k3, PS) is higher in target mRNA inhibition: 12% for the first, 20% for the second.

Going from TACTATATTTAAGGCC (sugars k3 d10 k3, PS) to AACAGCACAGCGGTAC (sugars k3 d10 k3, PS), the target mRNA inhibition rises from 1% to 2%.

First: CTGCAATCATAAACTA (sugars k3 d10 k3, PS)
Second: ACTTAAATTACTAGCG (sugars k3 d10 k3, PS)
The target mRNA inhibition of the first is higher: 10% for the first, -10% for the second.

Compared with ATCAAGGCACTGATCA (sugars k3 d10 k3, PS), AAGTTTTCAGCAGTAG (sugars k3 d10 k3, PS) is lower in target mRNA inhibition: 23% for the first, 8% for the second.

First: ACATTTGGCCTACTCA (sugars k3 d10 k3, PS)
Second: CATTTCTCCAATGGAC (sugars k3 d10 k3, PS)
The target mRNA inhibition of the first is higher: 46% for the first, 12% for the second.

Compared with GTTAACTAGGCTTTAA (sugars k3 d10 k3, PS), ACCTTTTACTCTGATC (sugars k3 d10 k3, PS) is higher in target mRNA inhibition: 23% for the first, 34% for the second.

ATTATACATCAAGGAT (sugars k3 d10 k3, PS) and GTGGAAAGATTTGAGC (sugars k3 d10 k3, PS) are the same in target mRNA inhibition: 17% for the first, 17% for the second.

Going from TACTCCATGAAGAAGC (sugars k3 d10 k3, PS) to ATTCCCACCCAAAAGC (sugars k3 d10 k3, PS), the target mRNA inhibition rises from -26% to 5%.

Compared with GCGCTTAAGAGGGCAG (sugars k3 d10 k3, PS), TTACAAAACGAATTCA (sugars k3 d10 k3, PS) is higher in target mRNA inhibition: 6% for the first, 10% for the second.

First: CCATCATACTGCCAGG (sugars k3 d10 k3, PS)
Second: TAAGCGAATGGCTTTG (sugars k3 d10 k3, PS)
The target mRNA inhibition of the first is higher: 17% for the first, 7% for the second.

Going from CCAAAGACCTCGACAC (sugars k3 d10 k3, PS) to CAATTTAGAGCTTCTC (sugars k3 d10 k3, PS), the target mRNA inhibition falls from 13% to -12%.

First: TCTTGAAGACTGTTGC (sugars k3 d10 k3, PS)
Second: GGCCTACTCAAGCTCT (sugars k3 d10 k3, PS)
The target mRNA inhibition of the first is higher: 44% for the first, 14% for the second.

GGATCATTAAGCCACT (sugars k3 d10 k3, PS) was tested, and the target mRNA inhibition was 15%.

In the case of GCATTCTAATAGCAGC (sugars k3 d10 k3, PS), the target mRNA inhibition is reported as 10% and 21%.
For CTTATCTGCGGTTTCC (sugars k3 d10 k3, PS), the target mRNA inhibition was 62% and 53%.
In the case of CAGGTCATCTATTCAC (sugars k3 d10 k3, PS), the target mRNA inhibition is reported as 51% and 72%.
In the case of TTCCTTTCATAGAGCC (sugars k3 d10 k3, PS), the target mRNA inhibition is reported as 70% and 88%.
In the case of TTTTTGTGGTTATAGC (sugars k3 d10 k3, PS), the target mRNA inhibition is reported as 75% and 88%.
In the case of ACTTATCTGCGGTTTC (sugars k3 d10 k3, PS), the target mRNA inhibition is reported as 71% and 53%.
GTAGTAAGAATCTCAG (sugars k3 d10 k3, PS) was tested, and the target mRNA inhibition was 80% and 71%.
For GTAGTTGTATTAATCT (sugars k3 d10 k3, PS), the target mRNA inhibition was 68% and 65%.
In the case of TTAAATTACACCAGTC (sugars k3 d10 k3, PS), the target mRNA inhibition is reported as 50% and 65%.
